Data published in article PMC10247784, “Physiological activation of human and mouse bitter taste receptors by bile acids” (Communications Biology, 2023).
Where “and” joins values, the source holds several entries; their conditions need not be identical. Equal values may be shown once.

Molecular target: T1, human TAS2R1 (Homo sapiens, UniProt Q9NYW7)
T1 construct: expressed in transfected cells; host or cells: HEK293T-Gα16gust44
T1 sequence (Q9NYW7 1-299): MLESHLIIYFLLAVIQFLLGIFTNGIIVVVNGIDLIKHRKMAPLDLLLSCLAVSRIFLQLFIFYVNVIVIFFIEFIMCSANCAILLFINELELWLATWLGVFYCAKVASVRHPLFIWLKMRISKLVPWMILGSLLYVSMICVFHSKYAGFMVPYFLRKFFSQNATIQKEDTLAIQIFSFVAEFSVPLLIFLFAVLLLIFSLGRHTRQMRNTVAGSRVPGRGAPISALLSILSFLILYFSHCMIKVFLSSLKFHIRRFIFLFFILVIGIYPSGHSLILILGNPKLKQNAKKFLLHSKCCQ
Assay: Calcium imaging assay (FLIPR), HEK293T-Gα16gust44 cells transfected with human TAS2R1
Assay type: cell-based
Summary of the method: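 Bile acids from DMSO stocks are applied to dye-loaded cells one day after transient receptor transfection, and calcium-dependent fluorescence is recorded. Maximum signal is standardized to basal and normalized to buffer-only wells, with empty-vector signal subtracted.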

SMILES: C[C@H](CCC(=O)O)[C@H]1CC[C@H]2[C@@H]3CC[C@@H]4C[C@H](O)CC[C@]4(C)[C@H]3C[C@H](O)[C@]12C [Deoxycholic Acid, deoxycholic acid]
- Efficacy = maximal amplitude (ΔF/F) (TAS2R1, bile acids, mean): 0.1101
- Efficacy (maximal amplitude ΔF/F), individual data points (TAS2R1, bile acids, single replicates, listed as DCA): 0.109 and 0.1181 and 0.1032
- RLU (Time 0 s (second time grid)): 0 RLU
- RLU (Time 2 s): 0.493 RLU
- RLU (Time 4 s): 31.4027 RLU
- RLU (Time 6 s): 3.521 RLU
- RLU (Time 8 s): -1.537 RLU
- RLU (Time 12 s): 14.8432 RLU
- RLU (Time 14 s): 0.09676 RLU
- RLU (Time 16 s): 17.8407 RLU
- RLU (Time 18 s): -2.035 RLU
- RLU (Time 18.781 s): -64.4563 RLU
- RLU (Time 20.781 s): -74.4446 RLU
- RLU (Time 22.781 s): -47.6337 RLU
- RLU (Time 24.781 s): -3.248 RLU
- RLU (Time 26.781 s): 25.7142 RLU
- RLU (Time 28.781 s): 115.435 RLU
- RLU (Time 30.781 s): 160.244 RLU
- RLU (Time 32.781 s): 224.68 RLU
- RLU (Time 34.781 s): 265.794 RLU
- RLU (Time 36.781 s): 285.115 RLU
- RLU (Time 38.781 s): 296.049 RLU
- RLU (Time 40.781 s): 331.471 RLU
- RLU (Time 42.781 s): 355.405 RLU
- RLU (Time 44.781 s): 351.369 RLU
- RLU (Time 46.781 s): 370.806 RLU
- RLU (Time 48.781 s): 359.225 RLU
- RLU (Time 50.781 s): 385.526 RLU
- RLU (Time 52.781 s): 383.683 RLU
- RLU (Time 54.781 s): 370.149 RLU
- RLU (Time 56.781 s): 369.818 RLU
- RLU (Time 58.781 s): 385.269 RLU
- RLU (Time 60.781 s): 378.237 RLU
- RLU (Time 62.781 s): 433.32 RLU
- RLU (Time 64.781 s): 415.898 RLU
- RLU (Time 66.781 s): 407.815 RLU
- RLU (Time 68.781 s): 409.61 RLU
- RLU (Time 70.781 s): 404.287 RLU
- RLU (Time 72.781 s): 403.47 RLU
- RLU (Time 74.781 s): 421.511 RLU
- RLU (Time 76.781 s): 407.874 RLU
- RLU (Time 78.781 s): 402.577 RLU
- RLU (Time 80.781 s): 400.686 RLU
- RLU (Time 82.781 s): 411.74 RLU
- RLU (Time 84.781 s): 413.712 RLU
- RLU (Time 86.781 s): 386.975 RLU
- RLU (Time 88.781 s): 406.471 RLU
- RLU (Time 90.781 s): 396.647 RLU
- RLU (Time 92.781 s): 377.402 RLU
- RLU (Time 94.781 s): 398.73 RLU
- RLU (Time 96.781 s): 400.692 RLU
- RLU (Time 98.781 s): 408.833 RLU
- RLU (Time 100.781 s): 412.535 RLU
- RLU (Time 102.781 s): 404.992 RLU
- RLU (Time 104.781 s): 431.288 RLU
- RLU (Time 106.781 s): 394.532 RLU
- RLU (Time 108.781 s): 409.236 RLU
- RLU (Time 110.781 s): 378.853 RLU
- RLU (Time 112.781 s): 368.351 RLU
- RLU (Time 114.781 s): 393.07 RLU
- RLU (Time 116.781 s): 389.914 RLU
- RLU (Time 118.781 s): 397.129 RLU
- RLU (Time 120.781 s): 358.058 RLU
- RLU (Time 122.781 s): 360.498 RLU
- RLU (Time 124.781 s): 357.848 RLU
- RLU (Time 126.781 s): 357.113 RLU
- RLU (Time 128.781 s): 380.58 RLU
- RLU (Time 130.781 s): 362.729 RLU
- RLU (Time 132.781 s): 375.09 RLU
- RLU (Time 134.781 s): 362.515 RLU
- RLU (Time 136.781 s): 330.764 RLU
- RLU (Time 137.547 s): 319.55 RLU
- RLU (Time 143.547 s): 341.925 RLU
- RLU (Time 149.547 s): 313.832 RLU
- RLU (Time 155.547 s): 317.65 RLU
- RLU (Time 161.547 s): 302.763 RLU
- RLU (Time 167.547 s): 279.035 RLU
- RLU (Time 173.547 s): 260.648 RLU
- RLU (Time 179.547 s): 266.358 RLU
- RLU (Time 185.547 s): 253.1 RLU
- RLU (Time 191.547 s): 247.046 RLU
- RLU (Time 197.547 s): 220.468 RLU
- RLU (Time 203.547 s): 236.267 RLU
- RLU (Time 209.547 s): 247.998 RLU
- RLU (Time 215.547 s): 197.659 RLU
- RLU (Time 221.547 s): 234.297 RLU
- RLU (Time 227.547 s): 187.946 RLU
- RLU (Time 233.547 s): 202.574 RLU
- RLU (Time 239.547 s): 164.983 RLU
- RLU (Time 245.547 s): 168.248 RLU
- RLU (Time 293.547 s): 151.715 RLU
- RLU (Time 299.547 s): 145.558 RLU
- RLU (calcium trace, sheet TAS2R1, Time 305.547 s): 138.546 RLU
- RLU (calcium trace, sheet TAS2R1, Time 311.547 s): 132.623 RLU
- RLU (calcium trace, sheet TAS2R1, Time 317.547 s): 129.733 RLU
- RLU (calcium trace, sheet TAS2R1, Time 323.547 s): 134.84 RLU
- RLU (calcium trace, sheet TAS2R1, Time 329.547 s): 140.029 RLU
- RLU (calcium trace, sheet TAS2R1, Time 335.547 s): 144.9 RLU
- RLU (calcium trace, sheet TAS2R1, Time 341.547 s): 152.792 RLU
- RLU (calcium trace, sheet TAS2R1, Time 347.547 s): 132.414 RLU
- RLU (calcium trace, sheet TAS2R1, Time 353.547 s): 137.138 RLU
- RLU (calcium trace, sheet TAS2R1, Time 359.547 s): 131.392 RLU
- EC50 (calculated where receptor saturation was reached): 6.1 ± 0.6 µM
- Activation threshold concentration TAS2R1 (lowest concentration with significantly increased fluorescence vs empty vector (p < 0.01)): 3 µM and 3.00 µM
